Earlier results, collected in patent US20140018251A1, “Methods for Predicting Response to Anti-Cancer Therapy in Cancer Patients” (Stichting Het Nederlands Kanker Instituut, priority 2010, published 2014).

Test system: mouse mammary tumors lacking BRCA1

SMILES: N.N.[Cl][Pt][Cl] [cisplatin]
- sensitivity of tumors: extremely sensitive
